Experimental data taken from patent US10138255B2, “Piperazine derivatives as HIV protease inhibitors” (Merck Sharp & Dohme Corp., priority 2014, dated 2018).

system: HIV-1 (H9IIIB strain); assay: Cell-Based HIV Infection Assay Using a Reporter (MT4-GFP cells); details: Human immunodeficiency virus 1, inflection point (IP) of viral growth inhibition; MT4-GFP cells infected with HIV-1 H9IIIB; 50% normal human serum; mean of at least two independent experiments; read-out: Cell Based IP (50% NHS)
Outline: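 Inflection point from a 4-parameter curve of % viral growth inhibition, normalised to DMSO and triple-drug controls, using the 48 h/24 h ratio of GFP-positive cells (R0). MT4-GFP cells pre-infected 24 h with HIV-1 H9IIIB at low MOI; compounds tested in 50% normal human serum, 0.4% DMSO; mean of ≥2 experiments.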

SMILES | EC50
COC(=O)N[C@@H](C(=O)N[C@H]1CCC[C@@H]1CC[C@H]1CN[C@@H]2CCCS(=O)(=O)N1C2)[C@@H](c1ccc(Cl)cc1)C1CCN(C(=O)OCc2ccccc2)CC1 [Example 137, benzyl 4-{(1R,2R)-1-(4-chlorophenyl)-3-{[(1S,2R)-2-{2-[(6R,9S)-2,2-dioxido-2-thia-1,7-diazabicyclo[4.3.1]dec-9-yl]ethyl}cyclopentyl]amino}-2-[(methoxycarbonyl)amino]-3-oxopropyl}piperidine-1-carboxylate] | 1300 nM
COC(=O)N[C@@H](C(=O)N[C@H]1CCC[C@@H]1CC[C@H]1CN[C@@H]2CCCS(=O)(=O)N1C2)[C@@H](c1ccc(Cl)cc1)C1CCN(C(=O)OC2(C)CC2)CC1 [Example 138, 1-methylcyclopropyl 4-{(1R,2R)-1-(4-chlorophenyl)-3-{[(1S,2R)-2-{2-[(6R,9S)-2,2-dioxido-2-thia-1,7-diazabicyclo[4.3.1]dec-9-yl]ethyl}cyclopentyl]amino}-2-[(methoxycarbonyl)amino]-3-oxopropyl}piperidine-1-carboxylate] | 490 nM
N[C@H](C(=O)Nc1cc(F)cc(F)c1CC[C@H]1CN[C@@H]2CCCS(=O)(=O)N1C2)[C@@H](c1ccc(Cl)cc1)C1CCOCC1 [Example 143, (βR)-4-chloro-N-(2-{2-[(6R,9S)-2,2-dioxido-2-thia-1,7-diazabicyclo[4.3.1]dec-9-yl]ethyl}-3,5-difluorophenyl)-β-(tetrahydro-2H-pyran-4-yl)-L-phenylalaninamide] | 77 nM
COC(=O)N[C@H](C(=O)Nc1cc(F)cc(F)c1CC[C@H]1CN[C@@H]2CCCS(=O)(=O)N1C2)[C@@H](c1ccc(Cl)cc1)C1CCOCC1 [Example 144, methyl [(1S,2R)-2-(4-chlorophenyl)-1-[(2-{2-[(6R,9S)-2,2-dioxido-2-thia-1,7-diazabicyclo[4.3.1]dec-9-yl]ethyl}-3,5-difluorophenyl)carbamoyl]-2-(tetrahydro-2H-pyran-4-yl)ethyl]carbamate] | 21 nM
N[C@H](C(=O)N[C@H]1CCCC[C@@H]1CC[C@H]1CN[C@@H]2CCCS(=O)(=O)N1C2)[C@H](c1cncc(F)c1)c1ccc(Cl)c(F)c1 [Example 145, (βS)-4-chloro-N-[(1S,2R)-2-{2-[(6R,9S)-2,2-dioxido-2-thia-1,7-diazabicyclo[4.3.1]dec-9-yl]ethyl}cyclohexyl]-3-fluoro-β-(5-fluoropyridin-3-yl)-L-phenylalaninamide] | 76 nM
C[C@@H]1C[C@H]([C@H](c2ccc(F)cc2)[C@H](N)C(=O)Nc2c(F)ccc(F)c2CC[C@H]2CN[C@@H]3CCCS(=O)(=O)N2C3)C[C@H](C)O1 [Example 146, (βR)-β-[(2R,4r,6S)-2,6-dimethyltetrahydro-2H-pyran-4-yl]-N-(2-{2-[(6R,9S)-2,2-dioxido-2-thia-1,7-diazabicyclo[4.3.1]dec-9-yl]ethyl}-3,6-difluorophenyl)-4-fluoro-L-phenylalaninamide] | 25 nM
COC(=O)N[C@H](C(=O)Nc1c(F)ccc(F)c1CC[C@H]1CN[C@@H]2CCCS(=O)(=O)N1C2)[C@@H](c1ccc(F)cc1)[C@H]1C[C@@H](C)O[C@@H](C)C1 [Example 147, methyl [(1S,2R)-2-[(2R,4r,6S)-2,6-dimethyltetrahydro-2H-pyran-4-yl]-1-[(2-{2-[(6R,9S)-2,2-dioxido-2-thia-1,7-diazabicyclo[4.3.1]dec-9-yl]ethyl}-3,6-difluorophenyl)carbamoyl]-2-(4-fluorophenyl)ethyl]carbamate] | 22 nM
CC1(C)C[C@@H]([C@H](c2ccc(F)cc2)[C@H](N)C(=O)N[C@H]2CCCC[C@@H]2CC[C@H]2CN[C@@H]3CCCS(=O)(=O)N2C3)CCO1 [Example 148, (βR)-β-[(4S)-2,2-dimethyhetrahydro-2H-pyran-4-yl]-N-[(1S,2R)-2-{2-[(6R,9S)-2,2-dioxido-2-thia-1,7-diazabicyclo[4.3.1]dec-9-yl]ethyl}cyclohexyl]-4-fluoro-L-phenylalaninamide] | 160 nM
C[C@@H]1C[C@H]([C@H](c2ccc(F)cc2)[C@H](N)C(=O)N[C@H]2CCCC[C@@H]2CC[C@H]2CN[C@@H]3CCCS(=O)(=O)N2C3)C[C@H](C)O1 [Example 149, (βR)-β-[(2R,4r,6S)-2,6-dimelhyltclrahydro-2H-pyran-4-yl]-N-[(1S,2R)-2-{2-[(6R,9S)-2,2-dioxido-2-thia-1,7-diazabicyclo[4.3.1]dec-9-yl]ethyl}cyclohexyl]-4-fluoro-L-phenylalaninamide] | 97 nM
N[C@H](C(=O)N[C@H]1CCCC[C@@H]1CC[C@H]1CN[C@@H]2CCCS(=O)(=O)N1C2)[C@H](c1cncc(C(F)(F)F)c1)c1ccc(Cl)c(F)c1 [Example 150] | 22 nM
N[C@H](C(=O)Nc1cccc(F)c1CCC1CNC2CCCS(=O)(=O)N1C2)[C@H](CCC1CCCCO1)c1ccc(Cl)cc1 (stereo partly drawn) [Example 151, (βR)-4-chloro-N-{2-[2-(2,2-dioxido-2-thia-1,7-diazabicyclo[4.3.1]dec-9-yl)ethyl]-3-fluorophenyl}-β-[2-(tetrahydro-2H-pyran-2-yl)ethyl]-L-phenylalaninamide] | 23 nM
COC(=O)N[C@H](C(=O)Nc1cccc(F)c1CCC1CNC2CCCS(=O)(=O)N1C2)[C@H](CCC1CCCCO1)c1ccc(Cl)cc1 (stereo partly drawn) [Example 153, methyl [(1S,2R)-2-(4-chlorophenyl)-1-({2-[2-(2,2-dioxido-2-thia-1,7-diazabicyclo[4.3.1]dec-9-yl)ethyl]-3-fluorophenyl}carbamoyl)-4-(tetrahydro-2H-pyran-2-yl)butyl]carbamate] | 9.7 nM
COc1ccc([C@H](c2ccc(Cl)cc2)[C@H](N)C(=O)N[C@H]2CCCC[C@@H]2CC[C@H]2CN[C@@H]3CCCS(=O)(=O)N2C3)cn1 [Example 155, (βS)-4-chloro-N-[(1S,2R)-2-{2-[(6R,9S)-2,2-dioxido-2-thia-1,7-diazabicyclo[4.3.1]dec-9-yl]ethyl}cyclohexyl]-β-(6-methoxypyridin-3-yl)-L-phenylalaninamide] | 600 nM
N[C@H](C(=O)N[C@H]1CCCC[C@@H]1CC[C@H]1CN[C@@H]2CCCS(=O)(=O)N1C2)[C@@H](c1ccc(F)cc1)C1CCOCC1 [Example 156, (βR)-N-[(1S,2R)-2-{2-[(6R,9S)-2,2-dioxido-2-thia-1,7-diazabicyclo[4.3.1]dec-9-yl]ethyl}cyclohexyl]-4-fluoro-β-(tetrahydro-2H-pyran-4-yl)-L-phenylalaninamide] | 200 nM
N[C@H](C(=O)N[C@H]1CCC[C@@H]1CC[C@H]1CN[C@@H]2CCCS(=O)(=O)N1C2)[C@@H](c1ccc(Cl)cc1)C1CCS(=O)(=O)CC1 [Example 157, (βR)-4-chloro-β-(1,1-dioxidotetrahydro-2H-thiopyran-4-yl)-N-[(1S,2R)-2-{2-[(6R,9S)-2,2-dioxido-2-thia-1,7-diazabicyclo[4.3.1]dec-9-yl]ethyl}cyclopentyl]-L-phenylalaninamide] | 3400 nM
N[C@H](C(=O)Nc1cccc(F)c1CC[C@H]1CNC2CCCS(=O)(=O)N1C2)[C@@H](c1ccc(Cl)cc1)C1CCS(=O)(=O)CC1 (stereo partly drawn) [Example 158, (βR)-4-chloro-β-(1,1-dioxidotetrahydro-2H-thiopyran-4-yl)-N-(2-{2-[(9S)-2,2-dioxido-2-thia-1,7-diazabicyclo[4.3.1]dec-9-yl]ethyl}-3-fluorophenyl)-L-phenylalaninamide] | 110 nM
COC(=O)N[C@H](C(=O)Nc1cccc(F)c1CC[C@H]1CNC2CCCS(=O)(=O)N1C2)[C@@H](c1ccc(Cl)cc1)C1CCS(=O)(=O)CC1 (stereo partly drawn) [Example 159, methyl {(1S,2R)-2-(4-chlorophenyl)-2-(1,1-dioxidotetrahydro-2H-thiopyran-4-yl)-1-[(2-{2-[(9S)-2,2-dioxido-2-thia-1,7-diazabicyclo[4.3.1]dec-9-yl]ethyl}-3-fluorophenyl)carbamoyl]ethyl}carbamate] | 720 nM
N[C@H](C(=O)N[C@H]1CCCC[C@@H]1CC[C@H]1CN[C@@H]2CCCS(=O)(=O)N1C2)[C@@H](c1ccc(Cl)cc1)c1cc(F)cc(F)c1 [Example 160, (βS)-β-(4-chlorophenyl)-N-[(1S,2R)-2-{2-[(6R,9S)-2,2-dioxido-2-thia-1,7-diazabicyclo[4.3.1]dec-9-yl]ethyl}cyclohexyl]-3,5-difluoro-L-phenylalaninamide] | 22 nM
CC(C)[C@H](c1ccc(Cl)cc1)[C@H](N)C(=O)N[C@H]1CCCC[C@@H]1CC[C@H]1CN[C@@H]2CCCS(=O)(=O)N1C2 [Example 161, (βR)-4-chloro-N-[(1S,2R)-2-{2-[(6R,9S)-2,2-dioxido-2-thia-1,7-diazabicyclo[4.3.1]dec-9-yl]ethyl}cyclohexyl]-β-(1-methylethyl)-L-phenylalaninamide] | 78 nM
C[C@@H]1CC([C@H](c2ccc(Cl)cc2)[C@H](N)C(=O)N[C@H]2CCCC[C@@H]2CC[C@H]2CN[C@@H]3CCCS(=O)(=O)N2C3)C[C@H](C)O1 (stereo partly drawn) [Example 162, (βR)-4-chloro-β-[(2R,6S)-2,6-dimethyltetrahydro-2H-pyran-4-yl]-N-[(1S,2R)-2-{2-[(6R,9S)-2,2-dioxido-2-thia-1,7-diazabicyclo[4.3.1]dec-9-yl]ethyl}cyclohexyl]-L-phenylalaninamide] | 37 nM
N[C@H](C(=O)Nc1cccc(F)c1CCC1CNC2CCCS(=O)(=O)N1C2)[C@@H](c1ccc(Cl)cc1)C1CCOC(CC(F)(F)F)C1 (stereo partly drawn) [Example 163, (βR)-4-chloro-N-{2-[2-(2,2-dioxido-2-thia-1,7-diazabicyclo[4.3.1]dec-9-yl)ethyl]-3-fluorophenyl}-β-[2-(2,2,2-trifluoroethyl)telrahydro-2H-pyran-4-yl]-L-phenylalaninamide] | 19 nM
C[C@@H]1CC([C@H](c2ccc(Cl)c(F)c2)[C@H](N)C(=O)Nc2cccc(F)c2CC[C@H]2CN[C@@H]3CCCS(=O)(=O)N2C3)C[C@H](C)O1 (stereo partly drawn) [Example 165, (βR)-4-chloro-β-[(2R,6S)-2,6-dimethyltetrahydro-2H-pyran-4-yl]-N-(2-{2-[(6R,9S)-2,2-dioxido-2-thia-1,7-diazabicyclo[4.3.1]dec-9-yl]ethyl}-3-fluorophenyl)-3-fluoro-L-phenylalaninamide] | 7.5 nM
